Measured values reported in patent publication US6756210B2, “Linoleic acid diol and glucuronide conjugate levels as diagnostic markers of disorders of abnormal regulation of cytochrome P450 metabolism of unsaturated fatty acids” (The Regents of the University of California, priority 2001, dated 2004).
Where two headings read alike, the source gives them in different places.

Assays:
[1] = molecular target: T1, Human sEH (HsEH) (Homo sapiens, UniProt P34913); assay: Inhibition of recombinant human sEH (HsEH); assay type: biochemical; details: HsEH 0.26 μM
T1 sequence (P34913 1-555): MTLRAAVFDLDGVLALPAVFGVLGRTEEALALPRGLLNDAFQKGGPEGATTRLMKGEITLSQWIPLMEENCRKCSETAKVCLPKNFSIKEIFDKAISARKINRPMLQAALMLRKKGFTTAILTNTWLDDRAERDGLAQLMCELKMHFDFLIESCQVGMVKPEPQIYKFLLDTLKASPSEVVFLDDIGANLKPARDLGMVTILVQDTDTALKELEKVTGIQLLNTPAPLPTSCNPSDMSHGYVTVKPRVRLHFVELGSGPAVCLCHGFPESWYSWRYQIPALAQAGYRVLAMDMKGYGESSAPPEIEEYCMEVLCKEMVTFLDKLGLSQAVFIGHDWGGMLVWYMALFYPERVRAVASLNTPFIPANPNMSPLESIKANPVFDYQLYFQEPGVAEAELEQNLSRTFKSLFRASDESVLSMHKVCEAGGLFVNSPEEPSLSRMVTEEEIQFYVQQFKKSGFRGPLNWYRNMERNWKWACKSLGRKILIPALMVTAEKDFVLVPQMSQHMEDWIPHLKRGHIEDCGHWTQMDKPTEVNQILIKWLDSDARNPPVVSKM

[2] = molecular target: T2, recombinant mouse sEH (MsEH) (Mus musculus, UniProt P34914); assay: Inhibition of recombinant mouse sEH (MsEH); assay type: biochemical
T2 sequence (P34914 1-554): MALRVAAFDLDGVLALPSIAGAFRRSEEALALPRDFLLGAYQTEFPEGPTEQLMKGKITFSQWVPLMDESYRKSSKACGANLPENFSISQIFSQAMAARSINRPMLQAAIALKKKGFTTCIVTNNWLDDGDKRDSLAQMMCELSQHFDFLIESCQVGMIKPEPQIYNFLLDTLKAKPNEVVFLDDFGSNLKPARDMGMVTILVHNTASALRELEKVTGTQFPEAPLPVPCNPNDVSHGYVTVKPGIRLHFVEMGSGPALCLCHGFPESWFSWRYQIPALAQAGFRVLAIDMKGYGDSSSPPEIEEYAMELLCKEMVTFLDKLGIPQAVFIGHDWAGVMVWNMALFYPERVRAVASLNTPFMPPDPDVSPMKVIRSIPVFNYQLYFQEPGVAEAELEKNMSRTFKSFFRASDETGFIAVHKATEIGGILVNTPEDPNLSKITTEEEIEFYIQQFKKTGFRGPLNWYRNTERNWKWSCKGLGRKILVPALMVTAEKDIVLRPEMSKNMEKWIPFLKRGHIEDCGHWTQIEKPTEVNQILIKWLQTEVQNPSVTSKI

[3] = Table 1, MsEH 0.13 μM, read-out: Mouse sEH IC50
[4] = Table 2, MsEH 0.13 μM, read-out: Mouse sEH IC50

Compound | IC50 ([1]; Table 1) | IC50 [2] | IC50 [2, 3] | IC50 ([1]; Table 2) | IC50 [2, 4]
CCCCCCCCCCOC(=O)NC [compound 248] | 2900 ± 600 nM | 330 ± 50 nM | – | – | –
O=C(CC1CCCCC1)NC1CCCCC1 [compound 187] | 420 ± 30 nM | – | 50 ± 10 nM | – | –
O=C(NCCCCc1ccccc1)NC1CCCCC1 [compound 105] | 580 ± 30 nM | – | 50 ± 10 nM | – | –
CCCCCCCCCCCCNC(=O)NCC(C)C [compound 478] | 260 ± 20 nM | – | 50 ± 10 nM | – | –
CCCCCNC(=O)NC1CCCCC1 [compound 509] | 920 ± 80 nM | – | 60 ± 10 nM | – | –
O=C(Nc1ccc([N+](=O)[O-])cc1)NC1CCCCC1 [compound 38] | 360 ± 20 nM | – | 170 ± 10 nM | – | –
O=C(NCc1ccncc1)NC1CCCCC1 [compound 188] | 2500 ± 30 nM | – | 730 ± 80 nM | – | –
CC(C)(C)OC(=O)NCCNC(=O)NC1CCCCC1 [compound 124] | 140 ± 10 nM | – | 50 ± 10 nM | – | –
O=C(NCc1ccc(Cl)cc1)NC1CCCCC1 [compound 193] | 190 ± 10 nM | – | 50 ± 10 nM | – | –
O=C(NCC1CCCCC1)NC12CC3CC(CC(C3)C1)C2 [compound 437] | 100 ± 10 nM | – | 50 ± 10 nM | – | –
CC1CCC(C(C)C)C(OC(=O)NC2CCCCC2)C1 (centres unmarked) [compound 261] | 120 ± 10 nM | – | 80 ± 10 nM | – | –
N#Cc1ccc(NC(=O)NC2CCCCC2)cc1 [compound 118] | 100 ± 10 nM | – | 60 ± 10 nM | – | –
C[C@@H](NC(=O)NC1CCCCC1)c1ccccc1 [compound 545] | 3700 ± 300 nM | – | 50 ± 10 nM | – | –
O=C(NCCc1ccccc1)NC1CCCCC1 [compound 36] | 160 ± 20 nM | – | 60 ± 10 nM | – | –
O=C(NC1CCCCC1)Oc1ccccc1CO [compound 224] | 320 ± 80 nM | 990 ± 20 nM | – | – | –
CC1CCC(NC(=O)NC2CCCCC2)CC1 (centres unmarked) [compound 538] | 100 ± 10 nM | – | 50 ± 10 nM | – | –
O=C(NCCc1cnc[nH]1)NC1CCCCC1 [compound 461] | 550 ± 20 nM | – | 420 ± 10 nM | – | –
O=C(NCCC1CCCCC1)NC1CCCCC1 [compound 360] | 100 ± 10 nM | – | 50 ± 10 nM | – | –
CC(C)c1ccc(NC(=O)NCC2CCCCC2)cc1 [compound 180] | 100 ± 10 nM | – | 60 ± 10 nM | – | –
CCCCCCCCNC(=O)NCCC [compound 380] | 680 ± 30 nM | – | 730 ± 30 nM | – | –

Compound | IC50 ([1]; Table 1) | IC50 [2] | IC50 [2, 3] | IC50 ([1]; Table 2) | IC50 [2, 4]
O=C(Nc1cccc2ccccc12)NC1CCCCC1 [compound 59] | 480 ± 10 nM | – | 850 ± 20 nM | – | –
ON=C(c1ccccc1)C1OC1c1ccc(-c2ccccc2)cc1 (racemic) [R=4-C6H5—C6H4, R′=C6H5, X—Y=C═NOH, ±] | – | – | – | 35000 ± 1000 nM | 42000 ± 3000 nM
CC(O)C1OC1c1ccc([N+](=O)[O-])cc1 (racemic) [R=4-NO2—C6H4, R′=CH3, X—Y=CH—OH, ±] | – | – | – | 39000 ± 1000 nM | 6500 ± 200 nM
CCCCCCCCCCCCNC(=O)NC(C)(C)CC [compound 562] | 15000 ± 3000 nM | – | 500 ± 100 nM | – | –
O=C(Nc1ccncc1)NC1CCCCC1 [compound 100] | 150 ± 10 nM | – | 70 ± 10 nM | – | –
O=C(NCCc1ccc(Cl)cc1)NC1CCCCC1 [compound 361] | 200 ± 20 nM | – | 70 ± 20 nM | – | –
CC(C)(C)c1ccc(NC(=O)NC2CCCCC2)cc1 [compound 75] | 230 ± 10 nM | – | 60 ± 10 nM | – | –
CC(C)CNC(=O)NC1CCCCC1 [compound 103] | 2200 ± 100 nM | – | 120 ± 10 nM | – | –
O=C(NC1CCCCC1)NC1CCCC1 [compound 23] | 1690 ± 50 nM | – | 100 ± 10 nM | – | –
CC(C)c1ccc(NC(=O)NCCc2ccccc2)cc1 [compound 156] | 480 ± 10 nM | – | 200 ± 10 nM | – | –
O=C(NCC1CCCCC1)Nc1ccc2ccccc2c1 [compound 169] | 130 ± 10 nM | – | 60 ± 10 nM | – | –
CCOC(CCCNC(=O)Nc1cccc(Cl)c1)OCC [compound 167] | 3770 ± 30 nM | – | 390 ± 20 nM | – | –
CC(C)(C)C1CCC(NC(=O)NC2CCCCC2)CC1 (centres unmarked) [compound 428] | 100 ± 10 nM | – | 50 ± 100 nM | – | –
CCCCCCNC(=O)Nc1cccc(Cl)c1 [compound 178] | 250 ± 10 nM | – | 310 ± 10 nM | – | –
[O-][S+](c1ccccc1)C1OC1c1ccccc1 (racemic) [R=C6H5, R′=C6H5, X—Y=S═O, ±] | – | – | – | 310 ± 20 nM | 2300 ± 400 nM
O=C(NCC1CCCCC1)Nc1cccc(Cl)c1 [compound 179] | 100 ± 10 nM | – | 60 ± 10 nM | – | –
O=C(NCc1ccc([N+](=O)[O-])cc1)NC1CCCCC1 [compound 341] | 4300 ± 400 nM | – | 2300 ± 300 nM | – | –
O=C(NCC1CCCCC1)NC1CCCCC1 [compound 57] | 160 ± 10 nM | – | 60 ± 10 nM | – | –
O=C(NC1CCCCC1)OC1CCCCC1 [compound 42] | 130 ± 10 nM | – | 60 ± 10 nM | – | –
Nc1ccc(CNC(=O)NC2CCCCC2)cc1 [compound 379] | 1500 ± 100 nM | – | 50 ± 10 nM | – | –

Compound | IC50 ([1]; Table 1) | IC50 [2] | IC50 [2, 3] | IC50 ([1]; Table 2) | IC50 [2, 4]
CCNC(=O)OC1CCCCC1 [compound 255] | 2880 ± 40 nM | 480 ± 70 nM | – | – | –
CC(C)[C@@H]1CC[C@@H](C)C[C@H]1OC(=O)NC1CCCCC1 [compound 225] | 1050 ± 30 nM | – | 840 ± 100 nM | – | –
O=C(NC1CCCCC1)NC1CC2CCC1C2 (centres unmarked) [compound 543] | 100 ± 10 nM | – | 50 ± 10 nM | – | –
CCCCCCCCNC(=O)Nc1cccc(Cl)c1 [compound 170] | 180 ± 10 nM | – | 120 ± 10 nM | – | –
O=C(NCCc1ccccc1)NCc1ccccc1 [compound 470] | 7600 ± 100 nM | – | 590 ± 80 nM | – | –
O=C(Nc1ccc(Cl)cc1)Nc1ccc(Cl)c(Cl)c1 | 120 ± 10 nM | 360 ± 20 nM | – | – | –
CCCNC(=O)Nc1cccc2ccccc12 [compound 253] | 280 ± 10 nM | – | 100 ± 20 nM | – | –
O=C(O)CCCCCCCCCCCNC(=O)NC1CCCCC1 [compound 425] | 100 ± 10 nM | – | 50 ± 10 nM | – | –
O=C(NCC1CCCCC1)Nc1ccccc1 [compound 176] | 530 ± 30 nM | – | 60 ± 10 nM | – | –
CCCCCCCCNC(=O)NCCCCC [compound 125] | 720 ± 20 nM | – | 90 ± 10 nM | – | –
Cc1cccc(C)c1NC(=O)NC1CCCCC1 [compound 435] | 180 ± 10 nM | – | 50 ± 10 nM | – | –
O=C(Nc1ccc(OC(F)(F)F)cc1)NC1CCCCC1 [compound 343] | 100 ± 10 nM | – | 50 ± 10 nM | – | –
O=C(NC1CCCCCCCCCCC1)NC1CCCCC1 [compound 119] | 100 ± 10 nM | – | 50 ± 10 nM | – | –
O=C(NCCCc1ccccc1)Nc1ccccc1 [compound 430] | 550 ± 30 nM | – | 210 ± 20 nM | – | –
O=C(NC1CCCCCC1)NC1CCCCC1 [compound 22] | 100 ± 10 nM | – | 50 ± 100 nM | – | –
COC(c1ccccc1)C1OC1c1ccc(-c2ccccc2)cc1 (racemic) [R=4-C6H5—C6H4, R′=C6H5, X—Y=CH—OCH3, ±] | – | – | – | 1360 ± 70 nM | 480 ± 50 nM
CCCCCCCCCNC(=O)NC1CCCCC1 [compound 473] | 100 ± 10 nM | – | 50 ± 10 nM | – | –
CCCCCCCCCCNC(=O)NC1CCCCC1 [compound 153] | 100 ± 10 nM | – | 60 ± 10 nM | – | –
